Values joined by “and” are separate entries in the source; they are usually repeats but may differ in a detail not shown here. Identical values can stand only once. Like-named read-outs stand apart in the source and are kept apart here. Each block holds one compound with its values, some of them ahead of it.
Columns and labels:
wild-type E. coli = assay: Sensitization of wild-type E. coli toward antibiotics (MIC of antibiotic with/without sensitizer); format: cell-based, Escherichia coli; conditions: for MIC: Escherichia coli; for FIC: fractional inhibitory concentration
Description: Bacteria were cultured with the antibiotic at various concentrations in the presence or absence of bacterial sensitizer for 24 hours at 37° C. Bacterial growth density was determined by measuring OD600 (absorbance measured at a wavelength of 600 nm). […]
The formula for calculating FIC is shown below: […]

[1] = tested on: NDM-1 over-expressing E. coli; assay: microbe, parasite or virus in culture; format: cell-based, Escherichia coli; conditions: for FIC / MIC of AB with Compound C (5 μg/ml): antibiotic plus Compound C 5 μg/ml
wild type B. subtilis [2] = assay: Sensitization of B. subtilis toward antibiotics (MIC, OD600, 24 h); format: cell-based, Bacillus subtilis; conditions: 5.5 μg/ml Compound M-1
Description: FIG. 22A is a bar graph showing that Compound M-1 sensitizes B. subtilis towards rifampicin as described in Example 13. Bacteria was cultured with rifampicin at various concentrations in the presence or absence of Compound M-1 for 24 hours at 37° C. and bacterial growth density was determined by measuring OD600. The y-axis is growth density measured in percent. The x-axis is rifampicin concentration measured in micrograms per milliliter (***: p<0.01).
Compound M-1 can sensitize Gram-positive bacteria such as B. subtilis towards traditional antibiotics. […] The sensitization fold is 32-fold for Compound M-1 and the FIC index is 0.14.

B. subtilis = assay: Sensitization of B. subtilis to erythromycin (sensitization fold from IC90, OD600, 20 h); format: cell-based, Bacillus subtilis; conditions: for SF (B. subtilis) at 6 μM: compound at 6 μM; for SF (B. subtilis) at 12 μM: compound at 12 μM; for SF (B. subtilis) at 3 μM: compound at 3 μM
Description: (§1) E. coli bacteria were cultured in Miller's broth at 37° C. overnight prior to treatment. B. subtilis bacteria were cultured in nutrient broth at 37° C. overnight prior to treatment. […] Bacterial density was measured based on OD600.

E. coli = assay: Sensitization of E. coli to erythromycin (sensitization fold from IC90, OD600, 20 h); format: cell-based, Escherichia coli; conditions: NA=no activity; for SF (E. coli) at 25 μM: compound at 25 μM; for SF (E. coli) at 12 μM: compound at 12 μM; for SF (E. coli) at 12.5 μM: compound at 12.5 μM
Description: as §1

wild type B. subtilis [3] = assay: Sensitization of B. subtilis toward antibiotics (MIC, OD600, 24 h); format: cell-based, Bacillus subtilis; conditions: antibiotic alone
MRSA [4] = assay: Sensitization of MRSA to erythromycin (sensitization fold from IC90); format: cell-based, Staphylococcus aureus; conditions: for SF (MRSA) at 4 μM: compound at 4 μM
Description: MRSA bacteria were cultured in nutrient broth at 37° C. overnight prior to treatment. […] Bacterial density was measured based on OD600.

MRSA [5] = assay: MIC of compounds against MRSA (OD600, 48 h); format: cell-based; conditions: Staphylococcus aureus; for MIC: MIC = 90% growth inhibition, compound alone, 48 h
Description: Bacteria were then cultured with varying concentration of the compounds shown below for 48 hours, and then bacterial density was measured based on OD600. The minimum inhibitory concentration (MIC, 90% growth inhibition) was calculated for each compound, as shown in Table 4 (NA=no activity; --=not measured).

[6] = 24 h, antibiotic alone, wild-type E. coli, read-out: MIC of AB only
[7] = antibiotic alone, wild-type E. coli, read-out: MIC of AB only
[8] = read-out: MIC of AB with Compound C (5 μg/ml), antibiotic plus Compound C 5 μg/ml, wild-type E. coli
[9] = antibiotic plus Compound C 5 μg/ml, wild-type E. coli

Structure (SMILES): CO[C@H]1/C=C/O[C@@]2(C)Oc3c(C)c(O)c4c(O)c(c(/C=N/N5CCN(C)CC5)c(O)c4c3C2=O)NC(=O)/C(C)=C\C=C\[C@H](C)[C@H](O)[C@@H](C)[C@@H](O)[C@@H](C)[C@H](OC(C)=O)[C@@H]1C [Rifampicin, rifampicin]
MIC (wild-type E. coli; [6]): 10 µg/mL | MIC (wild-type E. coli; [7]): 10 µg/mL | MIC (wild-type E. coli; [8]): 0.02 µg/mL | Sensitization fold (wild-type E. coli; MIC of antibiotic only / MIC of antibiotic with Compound C 5 μg/ml, wild-type E. coli): 516 and 512 | FIC (wild-type E. coli; [9]): 0.11 and 0.10 | Sensitization fold ([1]; MIC of antibiotic only / MIC with Compound C 5 μg/ml): 516 | FIC [1]: 0.11 | MIC of AB with Compound C (5 μg/ml) [1]: 0.019 µg/mL | MIC of antibiotic on B. subtilis in the presence of Compound M-1 (wild type B. subtilis [2]): 0.037 µg/mL

Structure (SMILES): Cc1cc(COc2ccc(CN)cc2)cc(COc2ccc(CN)cc2)c1 [drawing 733]
SF (B. subtilis) at 12.5 μM (B. subtilis; erythromycin, compound at 12.5 μM, NA=no activity): 16-fold at 12.5 μM | SF (E. coli) at 25 μM (E. coli; erythromycin): 4-fold at 25 μM

Structure (SMILES): CC[C@H]1OC(=O)[C@H](C)[C@@H](O[C@H]2C[C@@](C)(OC)[C@@H](O)[C@H](C)O2)[C@H](C)[C@@H](O[C@@H]2O[C@H](C)C[C@H](N(C)C)[C@H]2O)[C@](C)(O)C[C@@H](C)C(=O)[C@H](C)[C@@H](O)[C@]1(C)O [Erythromycin, erythromycin]
MIC (wild-type E. coli; [7]): 50 µg/mL | MIC (wild-type E. coli; [8]): 0.4 µg/mL | FIC (wild-type E. coli; [9]): 0.11 | MIC of antibiotic on B. subtilis in the presence of Compound M-1 (wild type B. subtilis [2]): 1.5 µg/mL | MIC of antibiotic on B. subtilis in the absence of Compound M-1 (wild type B. subtilis [3]): 50 µg/mL

Structure (SMILES): Cc1cc(COc2cccc(C(=N)N)c2)cc(COc2cccc(C(=N)N)c2)c1 [drawing 743]
SF (B. subtilis) at 6 μM (B. subtilis; erythromycin, NA=no activity): 8 fold | SF (B. subtilis) at 12 μM (B. subtilis; erythromycin, NA=no activity): 32 fold | SF (E. coli) at 12 μM (E. coli; erythromycin): 2 fold | SF (E. coli) at 25 μM (E. coli; erythromycin): 8 fold

Structure (SMILES): Cc1cc(CSc2ccc(C3=NCCN3)cc2)cc(CSc2ccc(C3=NCCN3)cc2)c1 [drawing 745]
SF (B. subtilis) at 3 μM (B. subtilis; erythromycin): 4 fold | SF (B. subtilis) at 6 μM (B. subtilis; erythromycin, NA=no activity): 16 fold

Structure (SMILES): Cc1cc(CCc2ccc(C(=N)N)cc2)cc(CCc2ccc(C(=N)N)cc2)c1 [drawing 734]
SF (B. subtilis) at 6 μM (B. subtilis; erythromycin, NA=no activity): 32-fold at 6 μM | SF (E. coli) at 12.5 μM (E. coli; erythromycin): 8 fold | SF (E. coli) at 25 μM (E. coli; erythromycin): 32 fold

Structure (SMILES): Cc1ccc(COc2ccc(C(=N)N)cc2)cc1COc1ccc(C(=N)N)cc1 [drawing 746]
SF (B. subtilis) at 6 μM (B. subtilis; erythromycin, NA=no activity): 16 fold | SF (B. subtilis) at 12 μM (B. subtilis; erythromycin, NA=no activity): 32 fold | SF (E. coli) at 12.5 μM (E. coli; erythromycin): 4 fold | SF (E. coli) at 25 μM (E. coli; erythromycin): 32 fold

Structure (SMILES): Cc1cc(COc2ccc(C(=N)NC(C)C)cc2)cc(COc2ccc(C(=N)NC(C)C)cc2)c1 [drawing 835]
SF (MRSA) at 4 μM (MRSA [4]): 32-fold at 4 μM | MIC (MRSA [5]): 25 µM

Structure (SMILES): Cc1cc(COc2ccc(C(=N)N)cc2)nc(COc2ccc(C(=N)N)cc2)c1
SF (B. subtilis) at 6 μM (B. subtilis; erythromycin, NA=no activity): 8 fold | SF (B. subtilis) at 12 μM (B. subtilis; erythromycin, NA=no activity): 32 fold | SF (B. subtilis) (B. subtilis; sensitization fold = IC90 of erythromycin without/with compound, compound concentration not given, NA=no activity, T=toxic): > 30 | SF (E. coli) at 12.5 μM (E. coli; erythromycin): 8 fold | SF (E. coli) at 25 μM (E. coli; erythromycin): 32 fold | SF (E. coli) (E. coli; sensitization fold = IC90 of erythromycin without/with compound, compound concentration not given, T=toxic): 33

Structure (SMILES): CCCNC(=N)c1ccc(COc2cc(C)cc(OCc3ccc(C(=N)NCCC)cc3)c2)cc1 [drawing 841]
SF (MRSA) at 12 μM (MRSA [4]; compound at 12 μM, NA=no activity): 8 fold | SF (MRSA) at 25 μM (MRSA [4]; compound at 25 μM, NA=no activity): 8-16 fold | inhibition at 25 µM (MRSA [5]; read-out: Growth inhibition of MRSA at 25 μM, compound alone at 25 μM, NA=no activity): 30%

Structure (SMILES): CCC[C@@H]1C[C@@H](C(=O)N[C@@H]([C@H]2O[C@H](SC)[C@H](O)[C@@H](O)[C@H]2O)[C@H](C)Cl)N(C)C1 [Clindamycin, clindamycin]
MIC (wild-type E. coli; [6]): 250 µg/mL | MIC of AB with Compound C (5 μg/ml) (wild-type E. coli; [9]): 4 µg/mL | FIC (wild-type E. coli; [9]): 0.12 | MIC ([1]; Escherichia coli, antibiotic alone, read-out: MIC of AB only): 250 µg/mL | FIC [1]: 0.12 | MIC of AB with Compound C (5 μg/ml) [1]: 4 µg/mL

MIC (MRSA [5]): 12.5 µM
Structure (SMILES): CC(C)NC(=N)c1ccc(OCc2cccc(COc3ccc(C(=N)NC(C)C)cc3)c2F)cc1 [drawing 839]
SF (MRSA) at 4 μM (MRSA [4]): 16-fold at 4 μM

Structure (SMILES): COc1cc(C(=N)N)ccc1OCc1cccc(COc2ccc(C(=N)N)cc2OC)c1F [drawing 731]
SF (B. subtilis) at 6 μM (B. subtilis; erythromycin, NA=no activity): 4-fold at 6 μM

Structure (SMILES): CC(C)(C)c1cc(COc2ccc(C(=N)N)cc2F)cc(COc2ccc(C(=N)N)cc2F)c1 [drawing 742]
SF (B. subtilis) at 3 μM (B. subtilis; erythromycin): 2 fold | SF (B. subtilis) at 6 μM (B. subtilis; erythromycin, NA=no activity): 8 fold | SF (E. coli) at 6 μM (E. coli; erythromycin, compound at 6 μM): 4 fold | SF (E. coli) at 12 μM (E. coli; erythromycin): 32 fold

Structure (SMILES): CC(C)(C)c1cc(COc2ccc(C(=N)N)cc2F)cc(COc2ccc(C(=N)N)cc2F)c1 [drawing 844]
inhibition at 6 µM (MRSA [5]; read-out: Growth inhibition of MRSA at 6 μM, compound alone at 6 μM, NA=no activity): 60%
